Assay results reported in ChEMBL document CHEMBL3826915, “Design and comparative anticonvulsant activity assessment of CNS-active alkyl-carbamoyl imidazole derivatives” (Bioorg Med Chem, 2016).
Calls of active or inactive are those of the source. No cut-off for these calls is given here.

Legend:
[1] = test system: Mus musculus; assay: Anticonvulsant activity in albino CF1 mouse assessed as protection against maximal electroshock-induced seizures at 100 mg/kg, ip after 0.5 hrs; type: functional, organism-based
[2] = test system: Mus musculus; assay: Anticonvulsant activity in albino CF1 mouse assessed as protection against maximal electroshock-induced seizures at 30 mg/kg, ip after 2 hrs; type: functional, organism-based
[3] = test system: Mus musculus; assay: Anticonvulsant activity in albino CF1 mouse assessed as protection against 32 mA current-induced seizure at 30 mg/kg, ip after 0.5 hrs by 6 Hz psychomotor test; type: functional, organism-based
[4] = test system: Mus musculus; assay: Anticonvulsant activity in albino CF1 mouse assessed as protection against 32 mA current-induced seizure at 30 mg/kg, ip after 2 hrs by 6 Hz psychomotor test; type: functional, organism-based
[5] = test system: Mus musculus; assay: Anticonvulsant activity in albino CF1 mouse assessed as protection against 44 mA current-induced seizure at 50 mg/kg, ip after 0.25 hrs by 6 Hz psychomotor test; type: functional, organism-based
[6] = test system: Mus musculus; assay: Anticonvulsant activity in albino CF1 mouse assessed as protection against 44 mA current-induced seizure at 50 mg/kg, ip after 1 hr by 6 Hz psychomotor test; type: functional, organism-based
[7] = test system: Mus musculus; assay: Anticonvulsant activity in albino CF1 mouse assessed as protection against 44 mA current-induced seizure at 50 mg/kg, ip after 2 hrs by 6 Hz psychomotor test; type: functional, organism-based
[8] = test system: Mus musculus; assay: Neurotoxicity in albino CF1 mouse assessed as behavioral impairment at 30 mg/kg, ip after 0.5 hrs by rotorod test; type: toxicity, organism-based; conditions: in vivo
[9] = test system: Mus musculus; assay: Neurotoxicity in albino CF1 mouse assessed as behavioral impairment at 300 mg/kg, ip after 0.5 hrs by rotorod test; type: toxicity, organism-based; conditions: in vivo
[10] = test system: Mus musculus; assay: Neurotoxicity in albino CF1 mouse assessed as behavioral impairment at 30 mg/kg, ip after 2 hrs by rotorod test; type: toxicity, organism-based; conditions: in vivo
[11] = test system: Mus musculus; assay: Neurotoxicity in albino CF1 mouse assessed as behavioral impairment at 100 mg/kg, ip after 2 hrs by rotorod test; type: toxicity, organism-based; conditions: in vivo
[12] = test system: Mus musculus; assay: Neurotoxicity in albino CF1 mouse assessed as behavioral impairment at 300 mg/kg, ip after 2 hrs by rotorod test; type: toxicity, organism-based; conditions: in vivo
[13] = test system: Mus musculus; assay: Neurotoxicity in albino CF1 mouse assessed as behavioral impairment at 50 mg/kg, ip after 0.25 hrs by rotorod test; type: toxicity, organism-based; conditions: in vivo
[14] = test system: Mus musculus; assay: Neurotoxicity in albino CF1 mouse assessed as behavioral impairment at 50 mg/kg, ip after 0.5 hrs by rotorod test; type: toxicity, organism-based; conditions: in vivo
[15] = test system: Mus musculus; assay: Neurotoxicity in albino CF1 mouse assessed as behavioral impairment at 50 mg/kg, ip after 1 hr by rotorod test; type: toxicity, organism-based; conditions: in vivo
[16] = test system: Mus musculus; assay: Neurotoxicity in albino CF1 mouse assessed as behavioral impairment at 50 mg/kg, ip after 2 hrs by rotorod test; type: toxicity, organism-based; conditions: in vivo
[17] = test system: Rattus norvegicus; assay: Anticonvulsant activity in albino Sprague-Dawley rat assessed as protection against maximal electroshock-induced seizures at 30 mg/kg, po after 1 hr; type: functional, organism-based
[18] = test system: Rattus norvegicus; assay: Anticonvulsant activity in albino Sprague-Dawley rat assessed as protection against maximal electroshock-induced seizures at 30 mg/kg, po after 2 hrs; type: functional, organism-based
[19] = test system: Rattus norvegicus; assay: Neurotoxicity in albino Sprague-Dawley rat assessed as behavioral impairment at 30 mg/kg, ip after 0.25 hrs by rotorod test; type: toxicity, organism-based; conditions: in vivo
[20] = test system: Rattus norvegicus; assay: Neurotoxicity in albino Sprague-Dawley rat assessed as behavioral impairment at 30 mg/kg, po after 0.25 hrs by rotorod test; type: toxicity, organism-based; conditions: in vivo
[21] = test system: Rattus norvegicus; assay: Neurotoxicity in albino Sprague-Dawley rat assessed as behavioral impairment at 30 mg/kg, ip after 0.5 hrs by rotorod test; type: toxicity, organism-based; conditions: in vivo
[22] = test system: Rattus norvegicus; assay: Neurotoxicity in albino Sprague-Dawley rat assessed as behavioral impairment at 30 mg/kg, po after 0.5 hrs by rotorod test; type: toxicity, organism-based; conditions: in vivo
[23] = test system: Rattus norvegicus; assay: Neurotoxicity in albino Sprague-Dawley rat assessed as behavioral impairment at 30 mg/kg, ip after 1 hr by rotorod test; type: toxicity, organism-based; conditions: in vivo
[24] = test system: Rattus norvegicus; assay: Neurotoxicity in albino Sprague-Dawley rat assessed as behavioral impairment at 30 mg/kg, po after 1 hr by rotorod test; type: toxicity, organism-based; conditions: in vivo
[25] = test system: Rattus norvegicus; assay: Neurotoxicity in albino Sprague-Dawley rat assessed as behavioral impairment at 30 mg/kg, ip after 2 hrs by rotorod test; type: toxicity, organism-based; conditions: in vivo
[26] = test system: Rattus norvegicus; assay: Neurotoxicity in albino Sprague-Dawley rat assessed as behavioral impairment at 30 mg/kg, po after 2 hrs by rotorod test; type: toxicity, organism-based; conditions: in vivo
[27] = test system: Rattus norvegicus; assay: Anticonvulsant activity in ip dosed albino Sprague-Dawley rat assessed as protection against maximal electroshock-induced seizures; type: functional
[28] = test system: Rattus norvegicus; assay: Anticonvulsant activity in ip dosed albino Sprague-Dawley rat assessed as protection against maximal electroshock-induced seizures by measuring time to peak effect; type: functional
[29] = Protective index, ratio of TD50 for neurotoxicity in ip dosed albino Sprague-Dawley rat to ED50 for anticonvulsant activity in ip dosed maximal electroshock-induced seizure albino Sprague-Dawley rat model; type: toxicity, organism-based; conditions: in vivo, read-out: Ratio TD50/ED50
[30] = test system: Rattus norvegicus; assay: Anticonvulsant activity in ip dosed albino Sprague-Dawley rat assessed as protection against subcutaneous metrazol-induced seizures; type: functional
[31] = Protective index, ratio of TD50 for neurotoxicity in ip dosed albino Sprague-Dawley rat to ED50 for anticonvulsant activity in ip dosed subcutaneous metrazol-induced seizure albino Sprague-Dawley rat model; type: toxicity, organism-based; conditions: in vivo, read-out: Ratio TD50/ED50
[32] = Neurotoxicity in ip dosed albino Sprague-Dawley rat assessed as motor impairment by rotorod test; type: toxicity, organism-based; conditions: in vivo
[33] = test system: Rattus norvegicus; assay: Anticonvulsant activity in ip dosed albino Sprague-Dawley rat assessed as protection against subcutaneous metrazol-induced seizures by measuring time to peak effect; type: functional
[34] = test system: Mus musculus; assay: Anticonvulsant activity in ip dosed albino CF1 mouse assessed as protection against maximal electroshock-induced seizures; type: functional
[35] = Protective index, ratio of TD50 for neurotoxicity in ip dosed albino CF1 mouse to ED50 for anticonvulsant activity in ip dosed maximal electroshock-induced seizure albino CF1 mouse model; type: toxicity, organism-based; conditions: in vivo, read-out: Ratio TD50/ED50
[36] = test system: Mus musculus; assay: Anticonvulsant activity in ip dosed albino CF1 mouse assessed as protection against subcutaneous metrazol-induced seizures; type: functional
[37] = Protective index, ratio of TD50 for neurotoxicity in ip dosed albino CF1 mouse to ED50 for anticonvulsant activity in ip dosed […] metrazol-induced seizure albino CF1 mouse model; type: toxicity, organism-based; conditions: in vivo, read-out: Ratio TD50/ED50
[38] = test system: Mus musculus; assay: Anticonvulsant activity in ip dosed albino CF1 mouse assessed as protection against maximal electroshock-induced seizures by measuring time to peak effect; type: functional
[39] = test system: Mus musculus; assay: Anticonvulsant activity in ip dosed albino CF1 mouse assessed as protection against subcutaneous metrazol-induced seizures by measuring time to peak effect; type: functional
[40] = test system: Mus musculus; assay: Anticonvulsant activity in ip dosed albino CF1 mouse assessed as protection against 6 Hz current-induced seizures by psychomotor test; type: functional
[41] = test system: Mus musculus; assay: Anticonvulsant activity in ip dosed albino CF1 mouse assessed as protection against 6 Hz current-induced seizure by measuring time to peak effect; type: functional
[42] = Neurotoxicity in ip dosed albino CF1 mouse assessed as motor impairment by rotorod test; type: toxicity, organism-based; conditions: in vivo
[43] = test system: Mus musculus; assay: Anticonvulsant activity in albino CF1 mouse assessed as protection against maximal electroshock-induced seizures at 100 mg/kg, ip after 2 hrs; type: functional, organism-based
[44] = test system: Mus musculus; assay: Anticonvulsant activity in albino CF1 mouse assessed as protection against 44 mA current-induced seizure at 100 mg/kg, ip after 0.25 hrs by 6 Hz psychomotor test; type: functional, organism-based
[45] = test system: Mus musculus; assay: Anticonvulsant activity in albino CF1 mouse assessed as protection against 44 mA current-induced seizure at 100 mg/kg, ip after 0.5 hrs by 6 Hz psychomotor test; type: functional, organism-based
[46] = test system: Mus musculus; assay: Neurotoxicity in albino CF1 mouse assessed as behavioral impairment at 100 mg/kg, ip after 0.5 hrs by rotorod test; type: toxicity, organism-based; conditions: in vivo
[47] = test system: Mus musculus; assay: Neurotoxicity in albino CF1 mouse assessed as behavioral impairment at 100 mg/kg, ip after 0.25 hrs by rotorod test; type: toxicity, organism-based; conditions: in vivo
[48] = test system: Mus musculus; assay: Neurotoxicity in albino CF1 mouse assessed as behavioral impairment at 100 mg/kg, ip after 1 hr by rotorod test; type: toxicity, organism-based; conditions: in vivo
[49] = test system: Rattus norvegicus; assay: Anticonvulsant activity in albino Sprague-Dawley rat assessed as protection against maximal electroshock-induced seizures at 30 mg/kg, po after 0.25 hrs; type: functional, organism-based
[50] = test system: Rattus norvegicus; assay: Anticonvulsant activity in albino Sprague-Dawley rat assessed as protection against maximal electroshock-induced seizures at 30 mg/kg, ip after 0.5 hrs; type: functional, organism-based

CCCC(COC(=O)NCCCn1ccnc1)C(C)CC (stereo not given)
Activity [1]: Active | Activity [2]: inactive | Activity [3]: inactive | Activity [4]: inactive | Activity [5]: inactive | Activity [6]: inactive | Activity [7]: inactive | Activity [8]: Non-toxic | Activity [9]: Toxic | Activity [10]: Non-toxic | Activity [11]: Non-toxic | Activity [12]: Toxic | Activity [13]: Non-toxic | Activity [14]: Non-toxic | Activity [15]: Non-toxic | Activity [16]: Non-toxic | Activity [17]: inactive | Activity [18]: inactive | Activity [19]: Non-toxic | Activity [20]: Non-toxic | Activity [21]: Non-toxic | Activity [22]: Non-toxic | Activity [23]: Non-toxic | Activity [24]: Non-toxic | Activity [25]: Non-toxic | Activity [26]: Non-toxic | ED50 [27]: 20 mg/kg | Time [28]: 0.25 h | selectivity ratio [29]: 4.8 | ED50 [30]: > 95 mg/kg | selectivity ratio [31]: 1 | TD50 [32]: 96 mg/kg | Time [33]: 0.25 h | ED50 [34]: 24 mg/kg | selectivity ratio [35]: 2.8 | ED50 [36]: > 100 mg/kg | selectivity ratio [37]: 0.67 | Time [38]: 0.5 h | Time [39]: 0.5 h | ED50 [40]: inactive | Time [41]: 0.5 h | TD50 [42]: 67 mg/kg

CCC(CC)COC(=O)NCCCn1ccnc1
Activity [1]: Active | Activity [2]: inactive | Activity [43]: Active | Activity [4]: inactive | Activity [44]: Active | Activity [45]: Active | Activity [8]: Non-toxic | Activity [46]: Toxic | Activity [9]: Toxic | Activity [10]: Non-toxic | Activity [11]: Non-toxic | Activity [12]: Toxic | Activity [47]: Toxic | Activity [48]: Non-toxic | Activity [49]: inactive | Activity [50]: Active | Activity [19]: Non-toxic | Activity [20]: Non-toxic | Activity [21]: Non-toxic | Activity [22]: Non-toxic | Activity [23]: Non-toxic | Activity [24]: Non-toxic | Activity [25]: Non-toxic | Activity [26]: Non-toxic | ED50 [34]: 26 mg/kg | selectivity ratio [35]: 3.9 | ED50 [36]: > 85 mg/kg | selectivity ratio [37]: 1.2 | Time [38]: 0.5 h | Time [39]: 0.5 h | ED50 [40]: inactive | Time [41]: 0.5 h | TD50 [42]: 102 mg/kg
